In article PMC9826262, “Discovery of Benzo[d]imidazole‐6‐sulfonamides as Bromodomain and Extra‐Terminal Domain (BET) Inhibitors with Selectivity for the First Bromodomain” (Chemmedchem, 2022):
Values after ≈ are worked out from the molar mass of the structure shown.

Experiments:
in vitro = conditions: PAMPA, pH 7.4
Procedure: Membrane permeability was estimated by the well‐validated parallel artificial membrane permeability assay (PAMPA) technique.[17, 26]
Parallel Artificial Membrane Permeability Assay (PAMPA). Donor solution (0.2 mM) was prepared by diluting 20 mM dimethyl sulfoxide (DMSO) compound stock solution using phosphate buffer (pH 7.4, 0.01 M). Filters were coated with 5 μL of a 1 % (w/v) dodecane solution of L‐α‐phosphatidylcholine. Donor solution (150 μL) was added to each well of the filter plate. To each well of the acceptor plate, 300 μL of solution (5 % DMSO in phosphate buffer) was added. […] The sandwich was incubated for 24 h at room temperature under gentle shaking. After the incubation time, the sandwich plates were separated and 250 μL of the acceptor plate was transferred to a UV quartz microtiter plate and measured by UV spectroscopy, using a Multiskan GO microplate spectrophotometer (Thermo Fisher Scientific) at 250–500 nm at a step of 5 nm. Reference solutions (250 μL) were prepared diluting the sample stock solutions to the same concentration as that with no membrane barrier.
In this equation, VR is the volume of the acceptor compartment (0.3 cm^3), VD is the donor volume (0.15 cm^3), A is the accessible filter area (0.24 cm^2), and t is the incubation time in seconds.

[1] = CYPs and UGTs dual-activity microsomal stability; format: in vitro ADME; conditions: human liver microsomes; alamethicin, NADPH and UDPGA cofactors; 37 °C, 60 min
Procedure: In this study, the CYPs and UGTs “dual‐activity” microsomal stability assay was carried out to follow the loss of the test compounds over time under CYP‐ and UGT‐mediated metabolic pathways. In detail, the compounds were added to human liver microsomes in the presence of alamethicin, NADPH and UDPGA as cofactors.[24] Alamethicin, a pore‐forming peptide, was used to activate UGTs in human liver microsomes. Testosterone was used as positive control while the negative control was prepared by incubation of the compounds without cofactors up to 60 min. The negative control is essential to detect problems such as non‐specific protein binding or heat instability.
Instrumentation and chromatographic conditions. The metabolic stability of investigated compounds was monitored using a Nexera UHPLC system (Shimadzu, Kyoto, Japan) consisting of a CBM‐20A controller, two LC‐30AD pumps, an SPD‐M20A photo diode array detector, a CTO‐20AC column oven and, a SIL‐30AC autosampler. The chromatographic analyses were accomplished on a Kinetex® Evo C18 column, 150×2.1 mm×2.6 μm (Phenomenex®, Bologna, Italy) maintained at 40 °C. The optimal mobile phase consisted of 0.1 % HCOOH/H2O v/v (A) and 0.1 % HCOOH/ACN v/v (B) delivered at constant flow rate of 0.5 mL/min ^−1. Analysis was performed in gradient elution as follows: 0–8.00 min, 5–95 % B; 8.00–10.00 min, isocratic to 95 % B; then five minutes for column re‐equilibration. Data acquisition was set in the range 190–800 nm and chromatograms were monitored at 254 nm.
In vitro drug metabolism using human liver microsomes. 25 μL of 5 mg/mL human […] microsomes (Thermo Fisher Scientific, Bremen, Germany) were pre‐incubated with 0.625 μL of 100 μg/mL alamethicin. Then 2.5 μL of sample (5 mM) with 168 μL of 100 mM phosphate buffer (pH 7.4), 4 μL of 500 mM MgCl2 were added, the mixture was incubated at 37 °C for 5 min. Optimal UGT activity can be achieved by the addition of MgCl2 and alamethicin as pore forming antibiotic. These components allow for the efficient transfer of a glucuronide product and the cofactor uridine 5′‐diphospho‐α‐D‐glucuronic acid (UDPGA) within the microsomal matrix. The reaction has started by adding 50 μL of mix NADPH 20 mM and UDP‐GlcUA 20 mM as cofactors (1 : 1 v/v) and carried out 37 °C for 60 min in a Thermomixer comfort (Eppendorf, Hamburg, Germany). The reaction was stopped by the addition of 200 μL ice‐cold acetonitrile and then samples were centrifuged at 14,000 rpm at 25 °C for 5 min (Eppendorf® microcentrifuge 5424, Hamburg, Germany). The supernatants were collected and injected in UHPLC. The control at 0 min was obtained by addition of ice‐cold acetonitrile immediately after incubation with microsomes. […]

[2] = Nephelometric solubility determination; format: physicochemical; conditions: for solubility: aqueous buffer, kinetic from dmso stock, PBS with 1 % DMSO, tested at 50 and 100 μM, room temperature, read-out: Solubility (highest concentration where no precipitate was detected)
Procedure: Solubility determination. Solubility of the compounds was determined using Nepheloskan Ascent® (Labsystems). The experiments were performed at room temperature in 96‐well plates in a final volume of 300 μL. Each compound was tested in quadruplicate at the concentrations of 50 and 100 μM in PBS with 1 % DMSO. The measurements were performed at 4 different time points (T0, 30 min, 60 min, 90 min) from the preparation of the samples. Data obtained were compared to control (PBS with 1 % DMSO) and the ratio sample/control was determined for each compound. Compounds are considered soluble if the ratio is≤3.

[3] = tested on: BD1 and BD2 of BET proteins (BRD2, BRD3, BRD4 and BRDT); assay: Protein stability shift assay (ΔTm), BET bromodomains; format: binding; conditions: compound 10 μM; protein 2 μM
Procedure: (§1) The compounds were tested at 10 μM fixed dose and the pan‐BET inhibitor 1 was used as a reference compound.[22] The results obtained from this screening supported our design strategy.
(§2) Protein stability shift assay. Thermal melting experiments were carried out using an Mx3005p Real Time PCR machine (Stratagene). Proteins were buffered in 10 mM HEPES pH 7.5, 500 mM NaCl and assayed in a 96‐well plate at a final concentration of 2 μM in 20 μL volume. Compounds were added at a final concentration of 10 μM. SYPRO Orange (Molecular Probes) was added as a fluorescence probe at a dilution of 1 : 1000. Excitation and emission filters for the SYPRO‐Orange dye were set to 465 nm and 590 nm, respectively. The temperature was raised with a step of 3 °C per minute from 25 °C to 96 °C and fluorescence readings were taken at each interval. The temperature dependence of the fluorescence during the protein denaturation process was approximated by the equation yT=yF+yU-yF/1+e^ΔuGT/RT
(§3) where ΔuG(T) is the difference in unfolding free energy between the folded and unfolded state, R is the gas constant and yF and yU are the fluorescence intensity of the probe in the presence of completely folded and unfolded protein, respectively. The baselines of the denatured and native states were approximated by a linear fit. The observed temperature shifts, ΔTm obs, were recorded as the difference between the transition midpoints of sample and reference wells containing protein without ligand in the same plate and determined by non‐linear least squares fit.

[4] = tested on: non‐BET bromodomain‐containing proteins (CREBBP, PB1 and PCAF); assay: Protein stability shift assay (ΔTm), non-BET bromodomains; format: binding; conditions: compound 10 μM; protein 2 μM
Procedure: as §1, §2, §3

BD1 of BRD4 = tested on: BD1 of BRD4; parameters: method as in earlier work; conditions: ref 19b; cited from earlier work

Cc1cc(/N=N/c2ccc(S(=O)(=O)Nc3ccccn3)cc2)c(N)cc1O [7 a, MS436, reference compound]
Papp at 24 h, 0.2 mM (in vitro): 0.0103 ×10⁻⁶ cm/s | CYPs and UGTs “dual‐activity” microsomal stability (percentage of the parent compound turnover) [1]: 7.8±0.5% | Solubility at 100 μM ([2]; 100 μM, aqueous solution with 1 % DMSO): still soluble | solubility [2]: 100 µM (≈ 38.3 µg/mL)

Cc1cc(-c2nc3ccc(S(=O)(=O)Nc4ccc(C#N)cc4)cc3[nH]2)cc(C)c1O [9 b, N ‐(4‐cyanophenyl)‐2‐(4‐hydroxy‐3,5‐dimethylphenyl)‐1H‐benzo[d]imidazole‐6‐sulfonamide]
Papp at 24 h, 0.2 mM (in vitro): 0.0909 ×10⁻⁶ cm/s | ΔTm screening against BET bromodomains [3]: increase in the melting temperature of all BET proteins | CYPs and UGTs “dual‐activity” microsomal stability (percentage of the parent compound turnover) [1]: 16.3±0.5% | solubility [2]: 50 µM (≈ 20.9 µg/mL)

Cc1cc(-c2nc3ccc(S(N)(=O)=O)cc3[nH]2)cc(C)c1O [9 c, 2‐(4‐hydroxy‐3,5‐dimethylphenyl)‐1H‐benzo[d]imidazole‐6‐sulfonamide]
ΔTm screening against BET bromodomains [3]: definitely lower affinity than 9 a and 9 b

CNS(=O)(=O)c1ccc2nc(-c3cc(C)c(O)c(C)c3)[nH]c2c1 [9 d, 2‐(4‐hydroxy‐3,5‐dimethylphenyl)‐N‐methyl‐1H‐benzo[d]imidazole‐6‐sulfonamide]
ΔTm screening against BET bromodomains [3]: definitely lower affinity than 9 a and 9 b

Cc1cc(-c2nc3ccc(S(=O)(=O)NCc4ccccn4)cc3[nH]2)cc(C)c1O [9 e, 2‐(4‐hydroxy‐3,5‐dimethylphenyl)‐N‐(pyridin‐2‐ylmethyl)‐1H‐benzo[d]imidazole‐6‐sulfonamide]
ΔTm screening against BET bromodomains [3]: complete loss of activity

Cc1cc(-c2nc3ccc(S(=O)(=O)NCc4cccnc4)cc3[nH]2)cc(C)c1O [9 f, 2‐(4‐hydroxy‐3,5‐dimethylphenyl)‐N‐(pyridin‐3‐ylmethyl)‐1H‐benzo[d]imidazole‐6‐sulfonamide]
ΔTm screening against BET bromodomains [3]: complete loss of activity

Cc1cc(-c2nc3ccc(S(=O)(=O)NC4CC4)cc3[nH]2)cc(C)c1O [9 g, N ‐cyclopropyl‐2‐(4‐hydroxy‐3,5‐dimethylphenyl)‐1H‐benzo[d]imidazole‐6‐sulfonamide]
ΔTm screening against BET bromodomains [3]: partial loss of affinity toward BETs | ΔTm screening, off-target binding (BD2 of BRDT and non-BET bromodomains) [4]: strong off‐target binding

Cc1cc(-c2nc3ccc(S(=O)(=O)NC4CCCC4)cc3[nH]2)cc(C)c1O [9 h, N ‐cyclopentyl‐2‐(4‐hydroxy‐3,5‐dimethylphenyl)‐1H‐benzo[d]imidazole‐6‐sulfonamide]
ΔTm screening against BET bromodomains [3]: affinity toward BETs similar to 9 a and 9 b | ΔTm screening, off-target binding (BD2 of BRDT and non-BET bromodomains) [4]: strong binding to BD2 of BRDT and other non‐BET bromodomain‐containing proteins

Cc1cc(-c2nc3ccc(S(=O)(=O)NC4CCCCC4)cc3[nH]2)cc(C)c1O [9 i, N ‐cyclohexyl‐2‐(4‐hydroxy‐3,5‐dimethylphenyl)‐1H‐benzo[d]imidazole‐6‐sulfonamide]
ΔTm screening against BET bromodomains [3]: affinity toward BETs similar to 9 a and 9 b | ΔTm screening, off-target binding (BD2 of BRDT and non-BET bromodomains) [4]: strong binding to BD2 of BRDT and other non‐BET bromodomain‐containing proteins

Cc1cc(-c2nc3ccc(S(=O)(=O)Nc4ccccn4)cc3[nH]2)ccc1O [9 j, 2‐(4‐hydroxy‐3‐methylphenyl)‐N‐(pyridin‐2‐yl)‐1H‐benzo[d]imidazole‐6‐sulfonamide]
ΔTm screening against BET bromodomains [3]: marked loss of activity

Cc1cc(O)cc(C)c1-c1nc2ccc(S(=O)(=O)Nc3ccccn3)cc2[nH]1 [9 k, 2‐(4‐hydroxy‐2,6‐dimethylphenyl)‐N‐(pyridin‐2‐yl)‐1H‐benzo[d]imidazole‐6‐sulfonamide]
ΔTm screening against BET bromodomains [3]: marked loss of activity

O=S(=O)(Nc1ccccn1)c1ccc2nc(-c3ccc(O)cc3)[nH]c2c1 [9 l, 2‐(4‐hydroxyphenyl)‐N‐(pyridin‐2‐yl)‐1H‐benzo[d]imidazole‐6‐sulfonamide]
ΔTm screening against BET bromodomains [3]: still active but significantly less selective

O=S(=O)(Nc1ccccn1)c1ccc2nc(-c3cccc(O)c3)[nH]c2c1 [9 m, 2‐(3‐hydroxyphenyl)‐N‐(pyridin‐2‐yl)‐1H‐benzo[d]imidazole‐6‐sulfonamide]
ΔTm screening against BET bromodomains [3]: almost completely inactive

O=S(=O)(Nc1ccccn1)c1ccc2nc(-c3ccc(Cl)cc3)[nH]c2c1 [9 n, 2‐(4‐chlorophenyl)‐N‐(pyridin‐2‐yl)‐1H‐benzo[d]imidazole‐6‐sulfonamide]
ΔTm screening against BET bromodomains [3]: almost completely inactive

O=S(=O)(Nc1ccccn1)c1ccc2nc(-c3ccc(O)c(O)c3)[nH]c2c1 [9 o, 2‐(3,4‐dihydroxyphenyl)‐N‐(pyridin‐2‐yl)‐1H‐benzo[d]imidazole‐6‐sulfonamide]
ΔTm screening against BET bromodomains [3]: not tolerated

O=S(=O)(Nc1ccccn1)c1ccc2nc(-c3ccc(O)cc3O)[nH]c2c1 [9 p, 2‐(2,4‐dihydroxyphenyl)‐N‐(pyridin‐2‐yl)‐1H‐benzo[d]imidazole‐6‐sulfonamide]
ΔTm screening against BET bromodomains [3]: active but non‐selective

COCC(COC)n1c(-c2cc(C)c(=O)n(C)c2)nc2cc(N3CCOCC3)ccc21 [Compound 8, I‐BET469]
Selectivity for BD1 over BD2 of BRD2, BRD3 and BRD4 (BD1 of BRD4): 20 fold | pIC50 on BD1 of BRD4 (BD1 of BRD4): 7.9

CC(C)NCC(O)COc1cccc2ccccc12 (stereo not shown) [propranolol]
Papp at 24 h, 0.2 mM (in vitro): 1.91 ×10⁻⁶ cm/s
